Measured values reported in patent US10618937B2, “Method of treating Alzheimer's disease” (INDUSTRY-ACADEMIC COOPERATION FOUNDATION GYEONGSANG …, priority 2016, dated 2020).

Experiments:
[1] = test system: APP-transfected SH-SY5Y cells; assay: MTT assay, cell viability of APP-transfected SH-SY5Y cells; type: cell-based, human; settings: 0.5, 1, 5, 10 and 20 μM, 4 hours, compared to the untreated APP group
Description: The human APPswe/ind gene under the transcriptional control of the SV40 promoter/enhancer linked to the pCAX mammalian expression vector was obtained from addgene; The gene was deposited in the APP reservoir by Dennis Solkoe (plasmid 30145). The plasmid was amplified by DH5alpha strain in LB medium containing 50 μg/ml of ampicillin. The plasmid was purified by using a Qiagen plasmid mini kit (Cat #12143) and digested with EcoRV restriction enzyme and confirmed. The human neuroblastoma cell line SHYSY5Y used in the present in vitro experiments was cultured in DMEM medium containing 10% fetal bovine serum and 1% penicillin-streptomycin antibiotic (stock solutions concentrations of 10,000 U and 10,000 μg/ml, respectively)).
SH-SY5Y cells and HT-22 cells were inoculated into a culture flask containing the medium, and cultured until reaching the confluency of 70% to 75%. The pCAX vector with the APPswe/ind gene was transfected for 48 hours by using Lipofectamine 3000 (Life technologies) according to the manufacturers instructions.
APPswe/ind transfected SH-SY5Y cells were treated with novel peptide for 4 hours, followed by 3-[4, 5-dimethylthiazol-2-yl]-2,5-diphenyl tetrazolium bromide (MTT) analysis and Western blot analysis.
MTT assay was performed to measure the survival rate of cells treated with various concentrations of adiponectin receptor-activating novel peptide (5AA1). The cells were inoculated at 1×10^5 cells/well in a 96-well plate containing 200 μl of Dulbecco's modified Eagle's medium (DMEM). After 70% of cell confluence, SH-SY5Y cells were treated with 0.5 μM, 1 μM, 5 μM, 10 μM, and 20 μM of adiponectin receptor-activating novel peptide, and then cultured for 4 hours. At the end of the treatment, MTT (5 mg/ml in PBS) was added to each well, and the plate was cultured at a temperature of 37° C. for 4 hours. The formazan dissolved in dimethyl sulfoxide (DMSO) was added to the well and the plate was stirred in the agitator for 10 to 20 minutes. Then, the absorbance was measured at a wavelength of 550 nm to 570 nm (L1) and 620 nm to 650 nm (L2) by using a scanning microplate reader.
The L2 absorbance was measured for cell residuals and well imperfections, and the corrected absorbance (Abs.=L1−L2) of each well was calculated from 100× the absorbance of treated well/absorbance of the control well, and was used to measure the cell viability.

APP/PS1 mice = assay: Thioflavin S staining / immunofluorescence analysis of amyloid plaques in brain; type: in vivo; settings: cortex of APP/PS1 mice, compared to Veh-injected APP/PS1 mice, P<0.001
Description: Adiponectin receptor-activating novel peptide (5AA1) was IP administered to 10 week old APP/PS1 mice once every 2.5 days for 45 days, and then, to prepare a slide section, the brains of the mice were fixed by transcardial perfusion of ice-cold 4% paraformaldehyde. The brains were fixed in 4% paraformaldehyde for 72 hours, and then, transferred to 20% sucrose and maintained at a temperature of 4° C. for 72 hours. The brains were placed in an optimal cutting temperature (OCT) compound (A.O., USA), frozen in liquid nitrogen, and sectioned into coronal plane (14 μm) in CM 3050C cryostat (Leica, Germany). Pictures of tissue sections were taken on ProbeOn Plus charged slides (Fisher, USA).
Immunofluorescence analysis was performed by using minor modifications of the method described in the existing study (Shah et al., 2014; Shah et al., 2015). Slides containing tissue sections were washed twice with a 0.01 M PBS solution for 15 minutes. Proteinase K was added to the tissue sections, which were then cultured at a temperature of 37° C. for 5 minutes. The tissue sections were then reacted in a blocking solution (5% normal goat serum, 0.3% Triton X-100, PBS) for 1 hour. The slides were reacted overnight with the primary antibody (the same antibody used in the ‘Western blot analysis’) and then reacted with secondary TRITC- or FITC-conjugated antibodies (diluted 1:50 in PBS; Santa Cruz) at room temperature for 90 minutes. The slides were dipped in Prolong Antifade reagent (Molecular Probe, Eugene, Oreg., USA) and stained. All stained slides were analyzed with a confocal laser scanning microscope (Flouview FV 1000). Amyloid plaques were visualized in brain slices after Thioflavin S staining. The brain slices were washed twice with 0.01 M PBS for 10 minutes, and then immersed in fresh 1% Thioflavin S solution at room temperature for 10 minutes. The brain slices were then immersed in 70% ethanol for 5 minutes, then washed twice with water, counterstained with propidium iodide (PI) and covered with cover glass.
Morphological analysis and signals were analyzed with Image J software (open source software provided by the US NIH), and the analysis results were expressed as IOD (Integral Optical Density). The ratio of the amyloid deposit site in the proposed area was also quantified by using Image-J software.

| Substance | cell viability [1] | integrated density of the Aβ plaques in the cortex (Thioflavin S) (APP/PS1 mice) |
| --- | --- | --- |
| GPCWP (adiponectin receptor-activating peptide) [5AA4] | increased compared to the APP group, although the increase was not dependent on concentration | significantly reduced |
| GPCYP (adiponectin receptor-activating peptide) [5AA3] | increased compared to the APP group, although the increase was not dependent on concentration | significantly reduced |
| GPWGP (adiponectin receptor-activating peptide) [5AA2] | concentration-dependently increased | significantly reduced |
